Experimental data as given in US20040063649A1, “Azithromycin combination for emesis control in mammals” (Pfizer Inc, priority 1999, published 2004).

Tests used:
[1] = tested on: azithromycin-induced emesis in azithromycin-sensitive English pointers; test: Control of azithromycin-induced emesis in an azithromycin-sensitive dog population; type: in vivo
Description: (§1) The ability of various compounds to control azithromycin-induced emesis in dogs was measured in 13 studies using two groups of dogs. The majority of the studies were conducted using a family (dam and offspring) of 12 azithromycin-sensitive English pointers, bred and maintained by Young Veterinary Research Services of Turlock, Calif. The remaining studies were conducted using random source dogs maintained at the Pfizer Animal Health Research facility in Terre Haute, Ind. In all studies, azithromycin was administered in immediate release formulations at a dose of 10 mg/kg.
Initially, four commercialized antiemetic products and CP122,721 were screened individually in the azithromycin-sensitive population with a minimum 7 day washout period between antiemetic tests. Antiemetics were administered orally about 15 to 30 minutes prior to oral treatment with 10 mg/kg azithromycin in an immediate release tablet. […] Other antiemetics reduced the incidence of emesis by only about 10 to 42%.
(§2) Four studies were conducted to titrate the dose of CP122,721 for maximum antiemetic activity with and without a delay between oral antiemetic and oral azithromycin dosing. […] While these studies were in progress, random source dogs (8 per-treatment) were administered 0, 1.5 or 3 mg/kg CP122,721 simultaneously with 10 mg/kg azithromycin. […] In the fourth study, the sensitive pointers received either 3 or 4 mg/kg CP122,721 simultaneously with azithromycin. The incidence of emesis was equivalent with one dog in each treatment group vomiting.

emesis in ferrets = settings: vomiting caused by intragastric copper sulfate and ipecac syrup, subcutaneous loperamide, intraperitoneal cisplatin; cited from earlier work
[2] = tested on: azithromycin-induced emesis in random source dogs; test: Control of azithromycin-induced emesis in random source dogs; type: in vivo, dog; settings: for Emetic Dogs/Total Dogs: Random source dogs, 0 minutes before (simultaneously with) azithromycin 10 mg/kg
Description: as §1, §2

[3] = antiemetic 1 mg/kg oral, 30 minutes before azithromycin 10 mg/kg oral immediate release tablet

CCN(CC)CCNC(=O)c1cc(Cl)c(N)cc1OC [Metoclopramide, reference compound]
Emetic Dogs/Total Dogs ([1]; antiemetic 0.5 mg/kg oral, 15 minutes before azithromycin 10 mg/kg oral immediate release tablet): 11/12

CN1CCN(CCCN2c3ccccc3Sc3ccc(Cl)cc32)CC1 [Prochlorperazine, reference compound]
Emetic Dogs/Total Dogs [1, 3]: 7/12

CN(C)CCOC(c1ccccc1)c1ccccc1.Cn1c(=O)c2[nH]c(Cl)nc2n(C)c1=O [Dimenhydrinate, reference compound]
Emetic Dogs/Total Dogs ([1]; antiemetic 8 mg/kg oral, 30 minutes before azithromycin 10 mg/kg oral immediate release tablet): 10/12

COc1ccc(OC(F)(F)F)cc1CN[C@H]1CCCN[C@H]1c1ccccc1 [CP122,721, (2S,3S)-3-(2-methoxy-5-trifluoromethoxybenzyl)amino-2-phenylpiperidine]
effect on vomiting in ferrets (in words) (emesis in ferrets): reduces vomiting
Emetic Dogs/Total Dogs ([2]; CP122,721 1.5 mg/kg): 4/8
Emetic Dogs/Total Dogs ([2]; CP122,721 3 mg/kg): 0/8
incidence of emesis (in words) ([2]; random source dogs, 8 per treatment, 1.5 mg/kg simultaneously with 10 mg/kg azithromycin): not reduced
prevention of azithromycin emesis (in words) ([2]; random source dogs, 8 per treatment, 3 mg/kg simultaneously with 10 mg/kg azithromycin): completely effective
effective in preventing emesis ([1]; 5 mg/kg oral, about 15 to 30 minutes prior to oral azithromycin 10 mg/kg): 100%
Emetic Dogs/Total Dogs ([1]; Sensitive dogs, 30 minutes before azithromycin 10 mg/kg): 0/4
Emetic Dogs/Total Dogs ([1]; Sensitive dogs, CP122,721 1 mg/kg oral, 30 minutes before azithromycin 10 mg/kg): 4/4
Emetic Dogs/Total Dogs ([1]; Sensitive dogs, CP122,721 2.5 mg/kg oral, 0 minutes before (simultaneously with) azithromycin 10 mg/kg): 6/6
Emetic Dogs/Total Dogs ([1]; Sensitive dogs, CP122,721 2.5 mg/kg oral, 30 minutes before azithromycin 10 mg/kg): 0/6
Emetic Dogs/Total Dogs ([1]; Sensitive dogs, CP122,721 3 mg/kg, 0 minutes before (simultaneously with) azithromycin 10 mg/kg): 1/6
Emetic Dogs/Total Dogs ([1]; Sensitive dogs, CP122,721 4 mg/kg, 0 minutes before (simultaneously with) azithromycin 10 mg/kg): 1/6
Emetic Dogs/Total Dogs ([1]; Sensitive dogs, CP122,721 dose cell blank (third line of first titration), 30 minutes before azithromycin 10 mg/kg): 0/4
Emetic Dogs/Total Dogs ([1]; antiemetic 5 mg/kg oral, 30 minutes before azithromycin 10 mg/kg oral immediate release tablet): 0/12
emesis (in words) ([1]; sensitive pointers, 2.5 mg/kg simultaneously with azithromycin): all pointers were emetic
prevention of emesis (in words) ([1]; sensitive pointers, 2.5 mg/kg, 30 minutes prior to azithromycin): effective in preventing emesis
dogs vomiting in treatment group ([1]; sensitive pointers, 3 mg/kg simultaneously with azithromycin): one
dogs vomiting in treatment group ([1]; sensitive pointers, 4 mg/kg simultaneously with azithromycin): one

Cc1nccn1CC1CCc2c(c3ccccc3n2C)C1=O (centres unmarked) [Ondansetron, reference compound]
Emetic Dogs/Total Dogs [1, 3]: 5/12
reduction of the incidence of emesis ([1]; antiemetic oral about 15 to 30 minutes prior to oral azithromycin 10 mg/kg, doses as in Table 1): 58%
